Results: EP0109255A2, “Glycerol derivatives” (ONO PHARMACEUTICAL CO., LTD., priority 1982, dated 1984)

Tested on: mice
Assay: Acute toxicity by intravenous administration (tail vein)
Assay type: in vivo
Experimental: On the other hand, it was confirmed that the acute toxicity of all extent of the compounds of the present invention was more. than 30 mg/kg by intravenous administration. Therefore, glycerol derivatives of the present invention may be considered to be sufficiently safe and suitable for medical use. For example, the mortality (dead/used) in glycerol derivatives of the present invention, i.e. compounds prepared in Example 8, 8(j) and 8(r) was 2/10, 0/10 and 0/10, respectively, when each glycerol compound was intravenously administered to tail vein in ten mice at the dose of 30 mg/kg.

Row | SMILES | mortality (dead/used) (intravenously administered to tail vein in ten mice at the dose of 30 mg/kg) | mortality (dead/used) (mouse, in vivo, iv, 30 mg/kg)
1 | CCCCCCCCCCCCCCCCOCC(COCCCC[N+](C)(C)C)NC(=O)OCCCC (racemic) [8 (j), (2RS)-l-0-hexadecyl-2-dehydroxy-2-butoxycarbonylamino-3-0-[4-(N,N,N-trimethylammonio)butyl]glycerol iodide] | 0/10 | –
2 | CCCCCCCCCCCCCCCCOCC(COCCCC[N+](C)(C)C)NC(=O)NCCC (stereo not drawn) [8 (r)] | – | 0/10
3 | CCCCCCCCCCCCCCCCOCC(COCCCC[N+](C)(C)C)NC(=O)c1ccccc1 (stereo not drawn) [Example 8] | – | 2/10
